# Values of other authors in publication PMC7395068, “The evolution of strategies to minimise the risk of human drug-induced liver injury (DILI) in drug discovery and development” (Archives of Toxicology, 2020).
# Like-named read-outs stand apart in the source and are kept apart here. *1 amine or outer side, *2 acyl side, *3 side chain or, on linkers, in order; H or OH if unused. Where a SMILES comes first, the peptide text is derived from it. Bridges are numbered along the chain shown (N, C = ends). [ ]: non-standard residue; d: D form. The star is where a group is joined. hTyr(3S-OH,4S-OH,3'-OSO3H) = N[C@H](C(=O)O)[C@H](O)[C@@H](O)c1ccc(O)c(OS(=O)(=O)O)c1; Orn(4R-OH,5R-OH) = O=C([C@H](C[C@@H](O)[C@@H](O)N[*:3])N[*:1])[*:2]; Pro(3S-OH,4S-Me) = C[C@H]1CN[C@H](C(=O)O)[C@H]1O; X1 = CCCCCOc1ccc(-c2cc(-c3ccc(C(=O)*)cc3)no2)cc1; Gln(3R-OH) = NC(=O)C[C@@H](O)[C@H](N)C(=O)O; Hyp = O=C(O)[C@@H]1C[C@@H](O)CN1
# Settings: cited from earlier work
# [1] = binary in vivo human DILI call, ref Chen 2016
# [2] = human DILI, LTKB DILIrank category, ref Chen 2016
# [3] = binary in vivo DILI call given beside the severity category, ref Chen 2016
# [4] = human DILI concern category (LTKB DILIrank), ref Chen 2016
SMILES,"DILI +VE (5-8), DILI -VE (-4) [1]",DILI severity category [2],"DILI +VE (5-8), DILI -VE (-4) [3]",DILI severity category [4],also measured
CC(C)Nc1ncccn1 [isaxonine],+VE,vMost-DILI-Concern,–,–,–
O=[N+]([O-])O[C@@H]1CO[C@H]2[C@@H]1OC[C@@H]2O [isorbide mononitrate],–,–,–,–,"DILI +VE (5-8), DILI -VE (-4) (in vivo): -VE; DILI severity category (in vivo): Ambiguous DILI-concern"
CC[C@H](C)[C@H]1O[C@]2(CC[C@@H]1C)C[C@@H]1C[C@@H](C/C=C(\C)[C@@H](O[C@H]3C[C@H](OC)[C@@H](O[C@H]4C[C@H](OC)[C@@H](O)[C@H](C)O4)[C@H](C)O3)[C@@H](C)/C=C/C=C3\CO[C@@H]4[C@H](O)C(C)=C[C@@H](C(=O)O1)[C@]34O)O2 [ivermectin],+VE,vLess-DILI-Concern,–,–,–
C/C(=C\c1csc(C)n1)[C@@H]1C[C@@H]2O[C@]2(C)CCC[C@H](C)[C@H](O)[C@@H](C)C(=O)C(C)(C)[C@@H](O)CC(=O)N1 [ixabepilone],-VE,Ambiguous DILI-concern,–,–,–
CNC1(c2ccccc2Cl)CCCCC1=O (stereo not shown) [ketamine],+VE,vLess-DILI-Concern,–,–,–
C[N+](C)(C)C[C@H](O)CC(=O)[O-] [l-carnitine],-VE,vNo-DILI-Concern,–,–,–
N[C@@H](CS)C(=O)O [l-cysteine],–,–,–,–,"DILI +VE (5-8), DILI -VE (-4) (in vivo): -VE; DILI severity category (in vivo): Ambiguous DILI-concern"
CSCC[C@H](N)C(=O)O [l-methionine],-VE,vNo-DILI-Concern,–,–,–
CC(C)[C@@H]1NC(=O)[C@H](CCCCN)NC(=O)[C@@H](Cc2c[nH]c3ccccc23)NC(=O)[C@H](Cc2ccc(O)cc2)NC(=O)[C@@H](NC(=O)[C@H](N)Cc2ccc3ccccc3c2)CSSC[C@@H](C(=O)N[C@H](C(N)=O)[C@@H](C)O)NC1=O [lanreotide acetate],-VE,Ambiguous DILI-concern,–,–,–
Cc1c(OCC(F)(F)F)ccnc1C[S+]([O-])c1nc2ccccc2[nH]1 (stereo not shown) [lansoprazole],+VE,vLess-DILI-Concern,–,–,–
O=C([O-])[O-].O=C([O-])[O-].O=C([O-])[O-].[La+3].[La+3] [lanthanum carbonate],–,–,–,–,"DILI +VE (5-8), DILI -VE (-4) (in vivo): -VE; DILI severity category (in vivo): vNo-DILI-Concern"
Nc1cccc2c1CN(C1CCC(=O)NC1=O)C2=O (stereo not shown) [lenalidomide],+VE,vLess-DILI-Concern,–,–,–
N#Cc1ccc(C(c2ccc(C#N)cc2)n2cncn2)cc1 [letrozole],+VE,vLess-DILI-Concern,–,–,–
Nc1nc2c(c(=O)[nH]1)N(C=O)C(CNc1ccc(C(=O)N[C@@H](CCC(=O)O)C(=O)O)cc1)CN2 (stereo partly shown) [leucovorin],-VE,vNo-DILI-Concern,–,–,–
CN1c2c(nc(N)[nH]c2=O)NC[C@@H]1CNc1ccc(C(=O)N[C@@H](CCC(=O)O)C(=O)O)cc1 [levomefolate calcium],–,–,–,–,"DILI +VE (5-8), DILI -VE (-4) (in vivo): -VE; DILI severity category (in vivo): vNo-DILI-Concern"
C#C[C@]1(O)CC[C@H]2[C@@H]3CCC4=CC(=O)CC[C@@H]4[C@H]3CC[C@@]21CC [levonorgestrel],–,–,–,–,"DILI +VE (5-8), DILI -VE (-4) (in vivo): -VE; DILI severity category (in vivo): vNo-DILI-Concern"
CN1CC[C@]23CCCC[C@H]2[C@H]1Cc1ccc(O)cc13 [levorphanol],-VE,vNo-DILI-Concern,–,–,–
N[C@@H](Cc1cc(I)c(Oc2cc(I)c(O)c(I)c2)c(I)c1)C(=O)O [levothyroxine],+VE,vLess-DILI-Concern,–,–,–
CCC[C@@H]1C[C@@H](C(=O)N[C@@H]([C@H]2O[C@H](SC)[C@H](O)[C@@H](O)[C@H]2O)[C@@H](C)O)N(C)C1 [lincomycin],-VE,Ambiguous DILI-concern,–,–,–
CC(=O)NC[C@H]1CN(c2ccc(N3CCOCC3)c(F)c2)C(=O)O1 [linezolid],–,–,–,–,"DILI +VE (5-8), DILI -VE (-4) (in vivo): +VE; DILI severity category (in vivo): vLess-DILI-Concern"
C[C@@H](Cc1ccccc1)NC(=O)[C@@H](N)CCCCN [lisdexamfetamine],-VE,Ambiguous DILI-concern,–,–,–
O=NN(CCCl)C(=O)NC1CCCCC1 [lomustine],–,–,–,–,"DILI +VE (5-8), DILI -VE (-4) (in vivo): +VE; DILI severity category (in vivo): vLess-DILI-Concern"
N[C@@H](C(=O)N[C@@H]1C(=O)N2C(C(=O)O)=C(Cl)CC[C@H]12)c1ccccc1 [loracarbef],–,–,–,–,"DILI +VE (5-8), DILI -VE (-4) (in vivo): +VE; DILI severity category (in vivo): vLess-DILI-Concern"
O=C1Nc2ccc(Cl)cc2C(c2ccccc2Cl)=NC1O (stereo not shown) [lorazepam],-VE,Ambiguous DILI-concern,–,–,–
CN1CCN(C2=Nc3ccccc3Oc3ccc(Cl)cc32)CC1 [loxapine],–,–,–,–,"DILI +VE (5-8), DILI -VE (-4) (in vivo): -VE; DILI severity category (in vivo): Ambiguous DILI-concern"
OC[C@@H](O)[C@@H](O)[C@H](O)[C@H](O)CO [mannitol],-VE,vNo-DILI-Concern,–,–,–
CCCCCc1cc(O)c2c(c1)OC(C)(C)[C@@H]1CCC(C)=C[C@@H]21 [marinol],–,–,–,–,"DILI +VE (5-8), DILI -VE (-4) (in vivo): -VE; DILI severity category (in vivo): Ambiguous DILI-concern"

SMILES,"DILI +VE (5-8), DILI -VE (-4) [1]",DILI severity category [2],"DILI +VE (5-8), DILI -VE (-4) [3]",DILI severity category [4],also measured
Cc1ccc(Cl)c(Nc2ccccc2C(=O)O)c1Cl [meclofenamic acid],-VE,Ambiguous DILI-concern,–,–,–
N[C@@H](Cc1ccc(N(CCCl)CCCl)cc1)C(=O)O [melphalan],+VE,vLess-DILI-Concern,–,–,–
CN1CCCC(CN2c3ccccc3Sc3ccccc32)C1 (stereo not shown) [mepazine],+VE,vMost-DILI-Concern,–,–,–
C[N+]1(C)CCCC(OC(=O)C(O)(c2ccccc2)c2ccccc2)C1 (stereo not shown) [mepenzolate],-VE,vNo-DILI-Concern,–,–,–
CCCC(C)(COC(N)=O)COC(N)=O [meprobamate],-VE,vNo-DILI-Concern,–,–,–
O=S(=O)(O)CCS [mesna],–,–,-VE,Ambiguous DILI-concern,–
CN1CCCCC1CCN1c2ccccc2Sc2ccc([S+](C)[O-])cc21 (stereo not shown) [mesoridazine],–,–,-VE,Ambiguous DILI-concern,–
Cc1cc(C)cc(OCC2CNC(=O)O2)c1 (stereo not shown) [metaxalone],–,–,+VE,vLess-DILI-Concern,–
CCC(=O)C(CC(C)N(C)C)(c1ccccc1)c1ccccc1 (stereo not shown) [methadone],–,–,–,–,"DILI +VE (5-8), DILI -VE (-4) (in vivo): -VE; DILI severity category (in vivo): Ambiguous DILI-concern"
CC(=O)/N=c1/sc(S(N)(=O)=O)nn1C [methazolamide],–,–,+VE,vLess-DILI-Concern,–
C1N2CN3CN1CN(C2)C3 [methenamine hippurate],–,–,-VE,Ambiguous DILI-concern,–
C=CCC1(C(C)C#CCC)C(=O)N=C(O)N(C)C1=O (stereo not shown) [methohexital],–,–,-VE,Ambiguous DILI-concern,–
CN1C(=O)CC(C)(c2ccccc2)C1=O (stereo not shown) [methsuximide],–,–,-VE,vNo-DILI-Concern,–
C[N@+]1(CC2CC2)CC[C@]23c4c5ccc(O)c4O[C@H]2C(=O)CC[C@@]3(O)[C@H]1C5 [methylnaltrexone bromide],–,–,-VE,vNo-DILI-Concern,–
COC(=O)C(c1ccccc1)C1CCCCN1 (stereo not shown) [methylphenidate],–,–,–,–,"DILI +VE (5-8), DILI -VE (-4) (in vivo): +VE; DILI severity category (in vivo): vLess-DILI-Concern"
C[C@H]1C[C@@H]2[C@H]([C@@H](O)C[C@@]3(C)[C@H]2CC[C@]3(O)C(=O)CO)[C@@]2(C)C=CC(=O)C=C12 [methylprednisolone],–,–,+VE,vLess-DILI-Concern,–
C[C@]12CCC(=O)C=C1CC[C@@H]1[C@@H]2CC[C@@]2(C)[C@H]1CC[C@]2(C)O [methyltestosterone],–,–,+VE,vLess-DILI-Concern,–
CC[C@@H](CO)NC(=O)[C@@H]1C=C2c3cccc4c3c(cn4C)C[C@H]2N(C)C1 [methysergide],–,–,-VE,vNo-DILI-Concern,–
Cc1ccccc1N1C(=O)c2cc(S(N)(=O)=O)c(Cl)cc2NC1C (stereo not shown) [metolazone],–,–,-VE,Ambiguous DILI-concern,–
CC(C)(C(=O)c1cccnc1)c1cccnc1 [metyrapone],–,–,-VE,vNo-DILI-Concern,–
"CCCCCOc1ccc(-c2cc(-c3ccc(C(=O)N[C@H]4C[C@@H](O)[C@@H](O)NC(=O)[C@@H]5[C@@H](O)[C@@H](C)CN5C(=O)[C@H]([C@H](O)CC(N)=O)NC(=O)[C@H]([C@H](O)[C@@H](O)c5ccc(O)c(OS(=O)(=O)O)c5)NC(=O)[C@@H]5C[C@@H](O)CN5C(=O)[C@H]([C@@H](C)O)NC4=O)cc3)no2)cc1 [micafungin] (X1-[Orn(4R-OH,5R-OH)]T[Hyp][hTyr(3S-OH,4S-OH,3'-OSO3H)][Gln(3R-OH)][Pro(3S-OH,4S-Me)]; lactam 1-C)",–,–,+VE,vMost-DILI-Concern,–
OCCN1C[C@H](O)[C@@H](O)[C@H](O)[C@H]1CO [miglitol],–,–,-VE,vNo-DILI-Concern,–
CCCCN1C[C@H](O)[C@@H](O)[C@H](O)[C@H]1CO [miglustat],–,–,-VE,vNo-DILI-Concern,–
Clc1ccc(C(c2ccccc2Cl)C(Cl)Cl)cc1 (stereo not shown) [mitotane],–,–,-VE,vNo-DILI-Concern,–
COc1cc2c(cc1OC)[C@@H](Cc1cc(OC)c(OC)c(OC)c1)[N+](C)(CCCOC(=O)CC/C=C/CCC(=O)OCCC[N+]1(C)CCc3cc(OC)c(OC)cc3[C@H]1Cc1cc(OC)c(OC)c(OC)c1)CC2 (stereo partly shown) [mivacurium],–,–,-VE,vNo-DILI-Concern,–
CCOC(=O)[C@H](CCc1ccccc1)N[C@@H](C)C(=O)N1Cc2cc(OC)c(OC)cc2C[C@H]1C(=O)O [moexipril],–,–,-VE,Ambiguous DILI-concern,–
